From patent US6784175B2, “Use of substituted 1-amino-5-phenylpentane-3-ol and/or 1-amino-6-phenylhexane-3-ol compounds as medicaments” (Gruenenthal GmbH, priority 2000, dated 2004)

Key:
[1] = test system: (+)-MK801 binding site of the ionotropic NMDA receptor; assay: (3H)-(+)-MK801 receptor bonding test on rat cerebral membrane homogenates; conditions: 1 nmol/l (3H)-(+)-MK801, rat brain membrane homogenate; for Percentage inhibition of (3H)-(+)-MK801 binding at 10 μM: 10 μmol/l compound, triple determinations; for Ki: calculated from IC50 by Cheng-Prusoff equation
Description: Research to determine the NMDA antagonistic effect of each compound in general formula I was carried out on cerebral membrane homogenates (homogenate of rat brain without cerebellum, pons and medulla oblongata taken from male Wistar rats (Charles River, Sulzfeld, Germany)).
For this purpose, after separating the cerebellum, pons and medulla oblongata, freshly prepared rat brains were macerated in 50 mmol/l of tris/HCl (pH 7.7) with a Polytron homogeniser (model PT3000, Kinematika AG, Littau, Switzerland) at 6000 revolutions per minute (rpm) for 1 minute with ice cooling and centrifuged for 15 minutes at 4° C. and 60,000 g. After decanting and discarding the supernatant, again placing in 50 mmol/l of tris/HCl (pH 7.7) and macerating the membrane pellet with a homogeniser at 2000 rpm for 1 minute, it was centrifuged again for 15 minutes at 4° C. and 60,000 g. The supernatant was again discarding and the membrane pellet homogenised (2000 rpm for 1 minute) in 50 mmol/l of tris/HCl (pH 7.7) and frozen in aliquots at −70° C.
For the receptor bonding test, each aliquot was defrosted and then centrifuged for 15 minutes at 4° C. and 60,000 g. After decanting and discarding the supernatant, the membrane pellet was taken up with bonding test buffer and homogenised (2000 rpm for 1 minute). The bonding test buffer was 5 mmol/l tris/HCl (pH 7.7) supplemented with 30 μmol/l of glycine and 100 μmol/l of glutamic acid.
1 nmol/l of (^3H)-(+)-MK801 ((5R, 10S)-(+)-5-methyl-10,11-dihydro-5H-dibenzo(a,d)cycloheptane-5,10-imine was used as a radioactively marked ligand (NET-972, NEN, Cologne Germany). The proportion of unspecific bonding was determined in the presence of 10 μmol/l of non-radioactively marked (+)-MK801 (RBI/Sigma, Deisenhofen, Germany). In further batches, each of the compounds of general formula I were added in series of concentrations and the displacement of the radioactive ligand out of its specific bond to the NMDA receptor determined. All the batches were subjected to triple determinations. The batches were each incubated for 40 minutes at 25° C. in a water bath and then harvested for determination of the radioactive ligand bound to the cerebral membrane homogenate by means of filtration through glass-fibre filters (GF/B) (Whatman GF/B, Hassel, Munich, Germany). The radioactivity retained by the glass-fibre filter discs was measured in a β counter (Packard TRI-CARB Liquid Scintillation Analyser 2000CA, Packard Instrument, Meriden, Conn. 06450, USA) after adding a scintillator (“Ready Protein” scintillator, Beckmann Coulter GmhH, Krefeld, Germany).
The percentage inhibition of the specific bonding of the ligand (^3H)-(+)-MK801 in the presence of 10 μmol/l of each compound of general formula I resulting from the triple batches is used as a measure of the affinity of the compound for the (+)-MK801 binding site of the ionotropic NMDA receptor. From batches with concentration series of these compounds of general formula I, the IC50 values (concentration of substituted compounds with 50% displacement of radioactive ligand out of its specific bond) were calculated in accordance with the law of mass action using non-linear regression. From these IC50 values, the Kj values were calculated in accordance with the Cheng-Prusoff equation (Y. Cheng, W. H. Prusoff, 1973, Biochem. Pharmacol., 22, pp 3099-3108).

| Compound | melting point [°C] | Percentage inhibition of (3H)-(+)-MK801 binding at 10 μM [1] [%] | Ki [1] [nM] |
| --- | --- | --- | --- |
| CN(C)C(c1ccccc1)C1CCCCC1(O)CCc1ccccc1.Cl (stereo not shown) [Example 1, 2-(dimethylaminophenylmethyl)-1-phenethylcyclohexanol, hydrochloride] | 100 | 56 | 3800 |
| CN(C)C(c1ccccc1Cl)C1CCCCC1(O)CCc1ccccc1.Cl (stereo not shown) [Example 2, 2-[(2-chlorophenyl)dimethylaminomethyl]-1-phenethylcyclohexanol, hydrochloride] | 110 | 95 | 1700 |
| CN(C)C(c1ccccc1Br)C1CCCCC1(O)CCc1ccccc1.Cl (stereo not shown) [Example 3, 2-[(2-bromophenyl)dimethylaminomethyl]-1-phenethylcyclohexanol, hydrochloride] | 162 to 165 | 91 | 1700 |
| COc1cccc(C(C2CCCCC2(O)CCc2ccccc2)N(C)C)c1.Cl (stereo not shown) [Example 4, 2-[dimethylamino-(3-methoxyphenyl)methyl]-1-phenethylcyclohexanol, hydrochloride] | 90 | 51 | 6200 |
| Cc1ccccc1C(C1CCCCC1(O)CCc1ccccc1)N(C)C.Cl (stereo not shown) [Example 5, 2-(dimethylamino-o-tolylmethyl)-1-phenethylcyclohexanol, hydrochloride] | 187 to 188 | 93 | 1300 |
| CN(C)C(c1ccccc1)C1CCCCC1(O)CCCc1ccccc1.Cl (stereo not shown) [Example 6, 2-(dimethylaminophenylmethyl)-1-(3-phenylpropyl)cyclohexanol, hydrochloride] | 90 | 74 | 2600 |
| CN(C)C(c1ccccc1)C1CCCCC1(O)CCc1ccccc1F.Cl (stereo not shown) [Example 7, 2-(dimethylaminophenylmethyl)-1-[2-(2-fluorophenyl)ethyl]cyclohexanol, hydrochloride] | 95 | 91 | 1100 |
| CN(C)C(c1ccccc1F)C1CCCCC1(O)CCc1ccccc1.Cl (stereo not shown) [Example 8, 2-[dimethylamino-(2-fluorophenyl)methyl]-1-phenethylcyclohexanol, hydrochloride] | 172 to 174 | 91 | 1600 |
| CN(C)C(c1ccccc1Cl)C1CCCCC1(O)CCc1ccc(F)cc1.Cl (stereo not shown) [Example 9, 2-[(2-chlorophenyl)dimethylaminomethyl]-1-[2-(4-fluorophenyl)ethyl]cyclohexanol, hydrochloride] | 170 | 67 | 3800 |
| CN(C)C(c1ccccc1Cl)C1CCCCC1(O)CCc1ccccc1F.Cl (stereo not shown) [Example 10, 2-[(2-chlorophenyl)dimethylaminomethyl]-1-[2-(2-fluorophenyl)ethyl]cyclohexanol, hydrochloride] | 162 to 163 | 102 | 400 |
| CN(C)C(c1ccccc1Cl)C1CCCCC1(O)CCc1cccc(F)c1.Cl (stereo not shown) [Example 11, 2-[(2-chlorophenyl)dimethylaminomethyl]-1-[2-(3-fluorophenyl)ethyl]cyclohexanol, hydrochloride] | 120 to 126 | 93 | 2100 |
| CN(C)C(c1ccccc1)C1CCCCC1(O)CCc1ccccc1Cl.Cl (stereo not shown) [Example 12, 1-[2-(2-chlorophenyl)ethyl]-2-(dimethylaminophenylmethyl)cyclohexanol, hydrochloride] | 152 | 85 | 1500 |
| CN(C)C(c1ccccc1)C1CCCCC1(O)CCc1cccc(Cl)c1.Cl (stereo not shown) [Example 13, 1-[2-(3-chlorophenyl)ethyl]-2-(dimethylaminophenylmethyl)cyclohexanol, hydrochloride] | 95 | 61 | 3100 |
| Cl.OC1(CCc2ccccc2)CCCCC1C(c1ccccc1)N1CCCCC1 (stereo not shown) [Example 14, 1-phenethyl-2-(phenylpiperidine-1-yl-methyl)cyclohexanol, hydrochloride] | 127 | 88 | 2800 |
| Cc1ccccc1CCC1(O)CCCCC1C(c1ccccc1)N(C)C.Cl (stereo not shown) [Example 37, 2-(dimethylaminophenylmethyl)-1-(2-o-tolylethyl)cyclohexanol, hydrochloride] |  | 77 | 1800 |
| Cc1ccccc1CCC1(O)CCCCC1C(c1ccccc1Br)N(C)C.Cl (stereo not shown) [Example 38, 2-[(2-bromophenyl)dimethylaminomethyl]-1-(2-o-tolylethyl)cyclohexanol, hydrochloride] |  | 93 | 2300 |
| Cc1ccccc1CCC1(O)CCCCC1C(c1ccccc1C)N(C)C.Cl (stereo not shown) [Example 39, 2-(dimethylamino-o-tolylmethyl]-1-(2-o-tolylethyl)cyclohexanol, hydrochloride] |  | 90 | 1400 |
| CN(C)C(c1ccccc1Br)C1CCCCC1(O)CCCc1ccccc1.Cl (stereo not shown) [Example 40, 2-[(2-bromophenyl)dimethylaminomethyl]-1-(3-phenylpropyl)cyclohexanol, hydrochloride] |  | 82 | 1900 |
| CN(C)C(c1ccc(F)cc1Cl)C1CCCCC1(O)CCc1ccccc1F.Cl (stereo not shown) [Example 41, 2-[(2-chloro4-fluorophenyl)dimethylaminomethyl]-1-[2-(2-fluorophenyl)ethyl]cyclohexanol, hydrochloride] |  | 94 | 1200 |
| CN(C)C(c1ccc(F)cc1Cl)C1CCCCC1(O)CCc1ccccc1Cl.Cl (stereo not shown) [Example 42, 2-[(2-chloro4-fluorophenyl)dimethylaminomethyl]-1-[2-(2-chlorophenyl)ethyl]cyclohexanol, hydrochloride] |  | 85 | 2000 |
| Cc1ccccc1CCC1(O)CCCCC1C(c1ccccc1F)N(C)C.Cl (stereo not shown) [Example 43, 2-[dimethylamino-(2-fluorophenyl)methyl]-1-(2-o-tolylethyl)cyclohexanol, hydrochloride] |  | 92 | 1400 |
| CN(C)C(c1ccccc1F)C1CCCCC1(O)CCCc1ccccc1.Cl (stereo not shown) [Example 44, 2-[dimethylamino-(2-fluorophenyl)methyl]-1-(3-phenylpropyl)cyclohexanol, hydrochloride] |  | 91 | 1400 |
| Cc1ccccc1C(C1CCCCC1(O)CCCc1ccccc1)N(C)C.Cl (stereo not shown) [Example 45, 2-(dimethylamino-o-tolylmethyl)1-(3-phenylpropyl)cyclohexanol, hydrochloride] |  | 91 | 1800 |
| CN(C)C(c1ccccc1C(F)(F)F)C1CCCCC1(O)CCc1ccccc1Cl.Cl (stereo not shown) [Example 46, 1-[2-(2-chlorophenyl)ethyl]-2-[dimethylamino-(2-trifluoromethylphenyl)methyl]cyclohexanol, hydrochloride] |  | 79 | 1900 |
| CN(C)C(c1ccccc1C(F)(F)F)C1CCCCC1(O)CCc1ccccc1F.Cl (stereo not shown) [Example 47, 2-[dimethylamino-(2-trifluoromethylphenyl)methyl]-1-[2-(2-fluorophenyl)ethyl]cyclohexanol, hydrochloride] |  | 90 | 1400 |
